Test results: patent publication US20190134145A1, “METHOD FOR TREATING COGNITIVE DYSFUNCTION” (ARIZONA BOARD OF REGENTS ON BEHALF OF THE UNIVERSITY OF …, priority 2013, published 2019)

Tests used:
Paraventricular neurons = assay: Reactive oxygen species production (DHE/ethidium fluorescence) in neurons challenged with aldosterone; format: cell-based, SD rats; settings: mean±SE
Experimental: Paraventricular neurons were isolated from 22 day old female SD rats, dissociated and cultured on round coverslips and maintained in HBSS media for at least 48 hours prior to visualization by confocal microscopy. All cells were pre-incubated in 10 nM ALDO for 48 hours and then 1.0 μM Ang-(1-7) or 1.0 μM Ang-(1-7)+10.0 μM […] for 2 hours prior to testing with acute 1.0 μM Aldo. To measure ROS, changes in the ethidium fluorescence were measured which is directly proportional to the oxidation of dihydroethidium (DHE) by ROS. The cells were loaded with DHE (20 μM) added to the cell culture media for 1 h and then placed in a chamber for microscopic visualization of fluorescence. One-way ANOVAs for the experimental groups response to acute Aldo was determined. After establishing a significant ANOVA, post-hoc analyses were performed with Tukey multiple comparison tests between pairs of mean change scores. All data are expressed as means±SE. Statistical significance was set at P<0.05. Perfusion with 1.0 μM ALDO increased ROS (D=113.4+28%) in the PVN neurons. […] Pre-incubation in Ang-(1-7)+[…], restored the ALDO increase in ROS (Delta=105.9+9%). Change in ROS production was standardized relative to control state prior to ALDO treatment during ACSF incubation. ANOVA followed by Tukey's post hoc test was used for statistical comparisons between control and ALDO treatment. […]

CHF mice [1] = assay: Ejection fraction by echocardiography in CHF mice; format: in vivo; settings: systemic treatment 50 mcg/kg/hr subcutaneously
Experimental: Myocardial infarction and subsequent CHF was induced by ligation of the left coronary artery. By week 4 and week 8 post MI, CHF mice (n=15) had approximately 50 and 70% decline in ejection fraction as measured by echocardiography. For the object recognition SOR test at 8 weeks post MI, discrimination ratios were calculated from the time spent exploring the novel versus familiar object during the test phase. […] At 8 weeks post MI, a subgroup of CHF mice (n=6) and controls (n=4) were given 50 mcg/kg/hr Angiotensin (1-7) or saline subcutaneously for 4 weeks and then cognitive function was retested.
(§1) In addition, the invention provides a preclinical animal model of cardiovascular disease and congestive heart failure induced cognitive dysfunction. A total of 26, male C57B1/6J mice were randomly assigned to the control group or cardiovascular disease and congestive heart failure group. Myocardial infarction was induced by ligation of the left coronary artery. By week 4 and week 8 post MI, cardiovascular disease and congestive heart failure mice (n=15) had approximately 50 and 70% decline in ejection fraction as measured by echocardiography. Mice were tested for changes in spatial learning memory via the Morris water task and object recognition via the standard spontaneous object recognition (SOR) task at 4 and 8 weeks post MI. […]

CHF mice [2] = assay: Morris water maze task (spatial memory) in mice with congestive heart failure after myocardial infarction; format: in vivo; settings: 50 mcg/kg/hr subcutaneously for 4 weeks from 8 weeks post MI, first day of testing
Experimental: Prior to MI, the controls and CHF mice groups performed similarly on the Morris water task. Myocardial infarction and subsequent CHF was induced by ligation of the left coronary artery. By week 4 and week 8 post MI, CHF mice had approximately 50 and 70% decline in ejection fraction as measured by echocardiography. […] Animals were tested over 4 days with 6 spatial trials per day.
as §1, with “MI. At 8 weeks post MI, a subgroup of cardiovascular disease and congestive heart failure mice (n=6) and the control mice (n=4) were given 50 mcg/kg/hr Angiotensin (1-7) or saline subcutaneously for 4 weeks and then cognitive function was retested.” for “MI.”

CHF mice [3] = assay: Spontaneous (novel) object recognition (SOR) test in mice with congestive heart failure after myocardial infarction; format: in vivo; settings: CHF mice (n=6), 50 mcg/kg/hr subcutaneously from 8 weeks post MI, after 3 weeks of treatment; controls +0.25±0.2, CHF+saline −0.21±0.1
Experimental: Mice were 12 weeks post MI or sham surgery. Six mice were MI+Ang(1-7); three mice were MI+saline; and four mice were Sham+Ang (1-7). Alzet pumps with either Ang(1-7) or saline were implanted sq 3 weeks prior to NOR test. Novel object recognition test was performed 3 weeks post pump implant. Data shown are 1st 2 min of “test phase” DRatio=(t novel−t familiar)/(t novel+t familiar). A positive score indicates more time spent with the novel object, a negative score indicates more time spent with the familiar object, and a zero score indicates a null preference. *=p<0.05, #=p<0.05. ANOVA+posthoc Turkey test.
Myocardial infarction and subsequent CHF was induced by ligation of the left coronary artery. By week 4 and week 8 post MI, CHF mice (n=15) had approximately 50 and 70% decline in ejection fraction as measured by echocardiography. For the object recognition SOR test at 8 weeks post MI, discrimination ratios were calculated from the time spent exploring the novel versus familiar object during the test phase. […]
In addition, the invention provides a preclinical animal model of cardiovascular disease and congestive heart failure induced cognitive dysfunction. […] By week 4 and week 8 post MI, cardiovascular disease and congestive heart failure mice (n=15) had approximately 50 and 70% decline in ejection fraction as measured by echocardiography. […]

Compound	Change in ROS (D) relative to control state prior to ALDO treatment (Paraventricular neurons; PVN neurons, perfusion with 1.0 μM ALDO, no Ang-(1-7) pre-incubation)	Change in ROS (D) on ALDO, relative to control state prior to ALDO treatment (Paraventricular neurons; PVN neurons pre-incubated 2 hours in 1.0 μM Ang-(1-7), then acute 1.0 μM ALDO)	Ejection fraction (CHF mice [1])	Performance in Morris water maze task after treatment (CHF mice [2])	SOR discrimination ratio (CHF mice [3])
C[C@]12CCC(=O)C=C1CC[C@@H]1[C@@H]2[C@@H](O)C[C@]2(C=O)[C@@H](C(=O)CO)CC[C@@H]12 [ALDO, Aldosterone, reference compound]	113.4+28%				
angiotensin-(1-7) (DRVYIHP; Angiotensin 1-7; UniProt P01019 25-31, looked up) [Ang-(1-7), endogenous peptide derived from Angiotensin II via ACE2]		6.4+27%	not significantly impacted	significant improvement on object recognition memory on the first day of testing	+0.43±0.1
